Experiment [1] deals with BCPAP cells. Description: MTT cell viability assay, BCPAP. It is filed as cell-based, Human. To be noted: Homo sapiens, BCPAP, 72-hours of exposure, 1% FBS, mean±standard deviation (n=3), read-out: IC50 for reducing viability of BCPAP cells versus DMSO control. From the text: (§1) Human thyroid cancer BCPAP, TPC1, and FTC133 cell lines were the generous gifts of Drs. Rebecca Schweppe and Bryan Haugen (University of Colorado Denver) (Schweppe et al., The Journal of clinical endocrinology and metabolism 83:4331-4341 (2008)) with permission from the following originating laboratories: BCPAP—Dr. Fabien, Centre Hospitalier Lyon-Sud, France (Fabien et al., Cancer 73:2206-2212 (1994)); TPC1—Dr. Sato, Kanazawa University, Japan (Tanaka et al., Virology 161:62-411 (1987)); and FTC133—Dr. Goretzki, University of Leipzig, Germany (Goretzki et al., Recent Results Cancer Res 118:48-63 (1990)). The obtained cell lines were confirmed for identity by DNA fingerprinting. BCPAP was grown in RPMI 1640 medium (Life Technologies Co., Carlsbad, Calif.) while FTC133 and TPC1 were grown in DMEM (Life Technologies Co.), both supplemented with 10% fetal bovine serum (FBS) and NEAA unless as noted for experiments.
(§2) The effect of OSU-03012 and its derivatives on cell viability was assessed by using the 3-(4,5-dimethylthiazol-2-yl)-2,5-diphenyl-2H-tetrazolium bromide (MTT) assay. Three replicates were performed in each individual experiment, and experiments were repeated at least three separate times. Cells were grown in 96-well plates for 24 hours and were exposed to various concentrations of drugs dissolved in DMSO (final concentration 0.1%) in RPMI 1640 or DMEM containing 1% FBS for 72 hours. 10 μL of 0.5 mg/ml MTT was added to each well and cells were incubated in CO2 at 37° C. for 2 hours. Supernatants were removed from the wells, the reduced MTT dye was solubilized in 100 μL of solution C (12 ml of 1N HCl in 300 mL of isopropanol), and absorbance at 570 nm was determined on a microplate reader.
(§3) We assessed the ability of the compounds to reduce cell viability in vitro by MTT assay after 72 hours of continuous exposure. Results are shown in Table 1 and are depicted as the IC50 vs. simultaneously performed DMSO control.
(§4) ^aThe reported IC50 values are concentrations at which BCPAP, FTC133 and TPC1 cell viability by MTT assays 50% of DMSO control after 72-hours of exposure. Data are presented as mean±standard deviation (n=3). PAK and PDK1 Selectivity In Vivo
On the technique in general: Formazan colour is commonly taken as a measure of viable cells.

Experiment [2] concerns FTC133 cells. Kind of experiment: MTT cell viability assay, FTC133. It is filed as cell-based, Human. The conditions noted are these: Homo sapiens, FTC-133, 72-hours of exposure, 1% FBS, mean±standard deviation (n=3), read-out: IC50 for reducing viability of FTC133 cells versus DMSO control.
Description: as §1, §2, §3, §4

Experiment [3] has as its system TPC1 cells. Description: MTT cell viability assay, TPC1. It is filed as cell-based, Human. To be noted: Homo sapiens, TPC1, 72-hours of exposure, 1% FBS, mean±standard deviation (n=3), read-out: IC50 for reducing viability of TPC1 cells versus DMSO control.
Description: as §1, §2, §3, §4

In experiment [4] the target is T1, Recombinant active PAK 1 (Homo sapiens, UniProt Q13153).
T1 construct: purchased Calbiochem
T1 sequence (Q13153 whole entry): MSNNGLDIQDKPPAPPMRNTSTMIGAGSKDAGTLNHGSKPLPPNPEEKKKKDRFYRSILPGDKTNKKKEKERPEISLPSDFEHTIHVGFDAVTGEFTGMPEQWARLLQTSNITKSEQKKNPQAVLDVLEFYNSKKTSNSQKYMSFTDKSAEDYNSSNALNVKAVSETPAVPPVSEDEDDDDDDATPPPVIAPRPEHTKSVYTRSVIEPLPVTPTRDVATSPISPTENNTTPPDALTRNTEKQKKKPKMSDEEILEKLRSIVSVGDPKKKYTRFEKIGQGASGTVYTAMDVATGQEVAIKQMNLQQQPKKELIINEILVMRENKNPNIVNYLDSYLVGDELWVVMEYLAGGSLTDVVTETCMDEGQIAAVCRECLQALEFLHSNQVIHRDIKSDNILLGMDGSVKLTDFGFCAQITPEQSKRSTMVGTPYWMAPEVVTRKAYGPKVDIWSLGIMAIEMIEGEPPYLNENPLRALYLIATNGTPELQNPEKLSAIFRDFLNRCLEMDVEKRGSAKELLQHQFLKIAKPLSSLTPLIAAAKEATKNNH
Kind of experiment: In vitro PAK1 kinase assay (MBP substrate, 32P-ATP). It is filed as biochemical. The protocol:
Recombinant active PAK 1 (Calbiochem) was incubated with selected derivatives or 0.1% DMSO in the presence or absence of MBP (Sigma) in a 1× kinase buffer (Cell Signaling). The addition of [γ-32P]-ATP (2.5 μCi/reaction) (Perkin Elmer) started the reaction, which was incubated at 30° C. for 30 minutes. The reaction was terminated by the addition of EDTA. Results were obtained after visualization of ^32P-labeled MBP after separation on 12% polyacrylamide gels and autoradiography. For the Lineweaver-Burk plot analysis, the ratio of radioactive ATP to nonradioactive ATP was not altered. The PAK1 kinase activities are the means of three independent experiments quantified using P81 phosphocellulose paper by a scintillation counter after three washes with 0.75% phosphoric acid.
Screening of OSU-03012 Derivatives to Identify PAK1 Inhibitors. The 17 derivatives along with OSU-03012, each at 7.5 μM, were screened for their ability to inhibit PAK1 activity by in vitro PAK1 kinase assay. The dose was chosen (above the IC50 of OSU-03012) to allow OSU-03012 to serve as a robust positive control. The PAK1 kinase assay was performed using recombinant active PAK1 with myelin basic protein as substrate in the presence of 2.5 μM ATP and 7.5 μM of respective inhibitors.
To further investigate these six compounds, dose-response studies on PAK1 activity were performed by using PAK1 kinase assay. […] We next questioned whether compounds 4 or 15 inhibited PAK1 in an ATP competitive manner as their parent compound OSU-03012.

The test system of experiment [5] is PAK phosphorylation of Vimentin (Ser56). Description: Western blot, PAK phosphorylation of Vimentin (Ser56) in thyroid cancer cells. The class given is cell-based, Human. The conditions noted are these: 7.5 μM, 6 h, BCPAP, FTC133 and TPC1 cells (FIG. 3). The protocol:
(§5) Protein isolation and Western blot were performed as previously described. Ringel et al., Cancer research 61:6105-6111 (2001). 25 μg of total cell lysates were loaded into 4-12% SDS-PAGE, electrophoresed, and transferred to nitrocellulose membranes for immunoblotting. Primary antibodies against Akt (#9272), phospho-Akt (Thr308) (#2965), p44/42 MAPK (Erk1/2) (#9107), phospho-p44/42 MAPK (Erk1/2) (Thr202/Tyr204) (#4377) and GAPDH (#2118) were obtained from Cell Signaling Technology (Danvers, Mass., USA). Antibody against Vimentin (V6630) and phospho-Ser55 Vimentin were from Sigma-Aldrich, Inc. (St. Louis, Mo.) and MBL Co. (Nagoya, Japan), respectively. Antibodies against total and phosphorylated S6 were from Cell Signaling Technology®.
(§6) The ability of the compounds with in vitro anti-PAK1 activity was assessed for activity […] in thyroid cancer cells. In addition, because the compounds are based on the structure of a PDK1 inhibitor, PDK1 inhibitory activity was also assessed. Inhibitory activity in cells was estimated using Western blot with primary antibodies directed against kinase-specific phosphorylation sites; serine 56 of vimentin for PAK and threonine 308 of Akt for PDK1. BCPAP, TPC1, and FTC133 thyroid cancer cells were utilized. BCPAP and TPC1 are derived from PTC and have BRAF V600E and RET/PTC1 rearrangements, respectively. FTC133 is derived from a follicular thyroid cancer with an inactivating mutation of PTEN. Similar to the kinase screening assay, cells were treated with the six compounds or OSU-03012 at 7.5 μM concentration or with DMSO vehicle alone. The results were not entirely consistent across the three cell lines presumably related to mutation status or other factors. OSU-03012 inhibited both PDK1 and PAK-mediated phosphorylation of targets as predicted.
(§7) The dose-dependency of compounds 4 and 15 was next assessed (FIG. 4). […] Due to the important role that ERK activation plays in thyroid cancer, and its signaling activation by thyroid oncogenes, the effects of the compounds on ERK phosphorylation was also assessed.
(A western blot detects proteins with antibodies after separation by electrophoresis.)

Experiment [6] deals with PDK1 phosphorylation of Akt (Thr308). Description: Western blot, PDK1 phosphorylation of Akt (Thr308) in thyroid cancer cells. It is filed as cell-based, Human. The conditions noted are these: 7.5 μM, 6 h, BCPAP, FTC133 and TPC1 cells (FIG. 3). The protocol: as §5, §6, §7
Experiment [7] addresses PAK (Homo sapiens, UniProt Q13153). To be noted: Porchia et al., Mol Pharmacol 72:1124-1131 (2007); cited from earlier work.

Sequence of PAK (Q13153 whole entry): as above

As to `NCCC(=O)Nc1ccc(-n2nc(CO)cc2-c2ccc3ccc4ccccc4c3c2)cc1` [Compound 11, 3-Amino-N-(4-(3-(hydroxymethyl)-5-(phenanthren-3-yl)-1H-pyrazol-1-yl)phenyl)-propanamide], the IC50 in experiment [1] turned out to be 4.5 ± 1.04 µM; in experiment [2], 3.94 ± 2.29 µM; in experiment [3] it was 4.98 ± 1.94 µM. The “Inhibition of PAK1 kinase activity in initial screen” value in experiment [4] (7.5 μM inhibitor, 2.5 μM ATP, myelin basic protein substrate (FIG. 2A)) is listed as “inhibited PAK1 kinase activity”. In experiment [4] (in vitro kinase assay, comparison between compounds / with OSU-03012), the “Relative PAK1 inhibitory potency (comparison in words)” value was “more potent”. Further, the “PAK phosphorylation of vimentin (Western blot)” value in experiment [5] was “did not significantly alter PAK phosphorylation of vimentin”. The “PDK1 phosphorylation of Akt (Thr308) (Western blot)” value in experiment [6] is “markedly inhibit PDK1 phosphorylation of Akt”.

Consider `NCC(=O)Nc1ccc(-n2nc(C(F)(F)F)cc2-c2ccc3c(ccc4ccccc43)c2)cc1` [OSU-03012, reference compound], for which the IC50 in experiment [1] was 2.93 ± 1.05 µM; in experiment [2], 2.93 ± 1.87 µM; in experiment [3], 2.8 ± 1.33 µM; in experiment [4] (in vitro kinase assay, read-out: IC50 versus PAK, in vitro (bound implied by chosen test concentration)), under 7.5 µM. Further, the “PAK phosphorylation of vimentin (Western blot)” value in experiment [5] is listed as “inhibited”. Further, the “PDK1 phosphorylation of Akt (Thr308) (Western blot)” value in experiment [6] is recorded as “inhibited”. In experiment [7], the “PAK inhibitory activity (previously reported)” value is “low micromolar concentrations”.

These data come from US9156790B2, “Anticancer P21-activated kinase inhibitors” (Ohio State Innovation Foundation, priority 2013, dated 2015).
